The record followed here is patent US20250289813A1, “CDK INHIBITORS, PHARMACEUTICAL COMPOSITIONS, AND THERAPEUTIC APPLICATIONS” (ONQUALITY PHARMACEUTICALS CHINA LTD., priority 2022, published 2025).

Assay [1] concerns COLO205 human colon cancer cells. The assay is described as follows: CASPASE-GLO 3/7 apoptosis assay (protection against chemotherapy drug induced cytotoxicity). It is filed as cell-based. To be noted: Irinotecan (20 μM). The method, then:
The CASPASE-GLO 3/7 apoptosis assay was used to evaluate the protective effect of a compound on the cytotoxicity induced by a chemotherapy drug. The apoptosis assay was carried out using COLO205 human colon cancer cells. The cells were grown at 37° C. in a 5% CO2 humidified incubator in PRIM1640 supplemented with 10% FBS and 0.01 mg/mL bovine insulin. The cells were seeded at 4,000 cells/well in a 96-well plate. After incubated overnight, the cells were pretreated with a compound at predetermined concentrations or a vehicle for 16 h, followed by addition of a chemotherapy drug. After incubated for another 48 h, the CASPASE-GLO 3/7 reagent (100 μL/well) was added. The cells were mixed on an orbital shaker for 10 min and incubated at room temperature for 2 h. The 96-well plate was read with an ENVISION reader.

For assay [2], the system named is BALB/c mice. The assay is described as follows: 5-FU-induced diarrhea mouse model. It is filed as in vivo. To be noted: 12 h before 5-FU (175 mg/kg), day 7. The method, then: A compound was evaluated in a 5-FU-induced diarrhea mouse model for its protective effect on the cytotoxicity induced by the chemotherapy drug 5-FU. On day 0, BALB/c mice (20-25 g, 7-8 weeks of age) were randomly divided into 3 groups (vehicle, 5-FU, and compound treatment) with 10 mice in each group. In the vehicle group, the mice were administered orally with the same medium in the same amount as used in the treatment group for the compound and then injected with the same medium in the same amount as used in the 5-FU group. In the 5-FU group, the mice were administered orally with the same medium in the same amount as used in the treatment group for the compound and then injected with 5-FU (175 mg/kg). In the treatment group, the mice were administrated orally with the compound and then injected with 5-FU (175 mg/kg). The compound was formulated with a 0.5% CMC solution.
On day 7, the diarrhea grade of each mouse was determined according to the method described in Kurita et al., Cancer Chemother. Pharmacol. 2000, 46, 211-20, the disclosure of which is incorporated herein by reference in its entirety. Diarrhea remission rates were calculated using the formula of Diarrhea remission rate (%)=(diarrhea grade in 5-FU group—diarrhea grade in treatment group)/diarrhea grade in 5-FU group×100%.

Assay [3] relates to MCF-7 human breast cancer cells. Nature of the assay: CELLTITER-GLO luminescent cell viability assay. In kind it is cell-based. To be noted: MCF7, 192 h, MCF-7 cells, 8 days, read-out: EC50 (Effect on Cell Viability). The gist of the method: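 MCF-7 cells grown in EMEM with 10% FBS and insulin, seeded at 3,000 cells/well and left to adhere overnight. Compound exposure lasted 8 days at 37 °C; viability was read by CellTiter-Glo luminescence.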
For orientation: ATP-based viability assays read luminescence as a measure of living cells.

A further assay addresses CDK6/cyclin D1 (Homo sapiens (Human), UniProt Q00534). The assay is described as follows: CDK6 Caliper Mobility Shift assay. In kind it is biochemical. The gist of the method:
(§1)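 Caliper mobility-shift kinase assay with FAM-labeled peptide substrate. CDK4/cyclin D1 (15 nM) ran in 20 mM HEPES pH 7.5, 0.01% Triton X-100 at […] ATP; CDK6/cyclin D1 (7.5 nM) in 50 mM HEPES pH 7.5, 0.0015% BRIJ-35 at […] ATP. Compound was pre-incubated 10 min, reactions ran at 28 °C, and IC50 came from percent conversion inhibition.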

The next assay addresses CDK4/cyclin D1 (Homo sapiens (Human), UniProt P11802). The assay is described as follows: CDK4 Caliper Mobility Shift assay. It is filed as biochemical. The gist of the method:
as §1

Assay [4] deals with BALB/c mice. Nature of the assay: Irinotecan-induced diarrhea/constipation mouse model. It is filed as in vivo. To be noted: 6 h before and 6 h after irinotecan (240 mg/kg), Day 7. The method, then: A compound was evaluated in an irinotecan-induced diarrhea/constipation mouse model for its protective effect on the cytotoxicity induced by a chemotherapy drug. On day 0, BALB/c mice (20-25 g, 7-8 weeks of age) were randomly divided into 3 groups (vehicle, irinotecan, and compound treatment) with 10 mice in each group. In the vehicle group, the mice were administered orally with the same medium in the same amount as used in the treatment group for the compound and then injected with the same medium in the same amount as used in the irinotecan group. In the irinotecan group, the mice were administered orally with the same medium in the same amount as used in the treatment group for the compound and then injected with irinotecan (240 mg/kg). In the treatment group, the mice were administrated orally with the compound and then injected with irinotecan (240 mg/kg). The compound was formulated with a 0.5% CMC solution. […]
On Day 7, the diarrhea grade of each mouse was determined according to the method described in Kurita et al., Cancer Chemother. Pharmacol. 2000, 46, 211-20, the disclosure of which is incorporated herein by reference in its entirety. The diarrhea remission rates were calculated using the formula of Diarrhea remission rate (%)=(diarrhea grade in […]−diarrhea grade in treatment group)/diarrhea grade in 5-FU group×100%.

Sequence of CDK4/cyclin D1 (P11802 whole entry): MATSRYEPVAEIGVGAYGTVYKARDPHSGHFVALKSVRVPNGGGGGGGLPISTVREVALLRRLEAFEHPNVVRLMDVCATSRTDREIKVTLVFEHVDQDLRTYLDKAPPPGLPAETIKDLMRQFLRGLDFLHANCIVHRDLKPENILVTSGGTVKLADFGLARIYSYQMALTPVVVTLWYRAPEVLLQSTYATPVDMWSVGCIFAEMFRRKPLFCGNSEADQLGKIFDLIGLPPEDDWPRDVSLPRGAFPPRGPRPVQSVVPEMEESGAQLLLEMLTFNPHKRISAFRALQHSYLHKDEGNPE
Sequence of CDK4/cyclin D1 (P24385 whole entry partner): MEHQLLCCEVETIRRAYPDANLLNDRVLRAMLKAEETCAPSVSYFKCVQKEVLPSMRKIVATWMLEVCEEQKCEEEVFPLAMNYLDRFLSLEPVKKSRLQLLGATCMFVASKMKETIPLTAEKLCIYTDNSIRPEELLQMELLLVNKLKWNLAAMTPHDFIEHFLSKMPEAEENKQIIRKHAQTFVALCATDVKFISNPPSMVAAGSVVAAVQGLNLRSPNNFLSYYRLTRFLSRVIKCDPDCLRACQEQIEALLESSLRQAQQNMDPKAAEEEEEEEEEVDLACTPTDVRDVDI
Sequence of CDK6/cyclin D1 (Q00534 whole entry): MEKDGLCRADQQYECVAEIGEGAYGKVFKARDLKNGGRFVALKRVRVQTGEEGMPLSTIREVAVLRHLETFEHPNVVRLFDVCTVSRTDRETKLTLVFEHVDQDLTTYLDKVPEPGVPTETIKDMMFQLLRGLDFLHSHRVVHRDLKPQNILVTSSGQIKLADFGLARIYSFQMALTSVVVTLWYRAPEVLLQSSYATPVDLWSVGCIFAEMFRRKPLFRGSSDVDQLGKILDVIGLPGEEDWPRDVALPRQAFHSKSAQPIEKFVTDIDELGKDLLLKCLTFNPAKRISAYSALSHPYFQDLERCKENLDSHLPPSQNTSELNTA
Sequence of CDK6/cyclin D1 (P24385 whole entry partner): as the sequence (P24385 whole entry partner) above

As a reminder, the EC50 is the concentration at which the effect is half-maximal. As usually defined, the IC50 is the concentration that gives 50% inhibition. For the molecule `CCC(=O)NS(=O)(=O)N1CCN(c2ccc(Nc3ncc4c(C)c(C(C)=O)c(=O)n(C5CCCC5)c4n3)nc2)CC1` [Compound A35, N-((4-(6-((6-Acetyl-8-cyclopentyl-5-methyl-7-oxo-7,8-dihydropyrido[2,3-d]-pyrimidin-2-yl)amino)pyridin-3-yl)piperazin-1-yl)sulfonyl)propionamide], the “RPR (relative protection rate)” value in assay [1] (compound 2 μM) is reported as 83%; in assay [1] (compound 20 μM) it was 81%. Moreover, the “Remission Rate (diarrhea remission rate)” value with BALB/c mice [2] (5 mg/kg oral) is on record as 40%; in the assay with BALB/c mice [2] (25 mg/kg oral), 50%; in the assay with BALB/c mice [4] (10 mg/kg oral), 50%; with BALB/c mice [4] (100 mg/kg oral), 70%. Besides, in assay [3], the EC50 lay in the range of 1000 to 10000 nM. For the same molecule, the half-inhibitory concentration (IC50) on CDK6/cyclin D1 and on CDK4/cyclin D1 was no more than 200 nM each time.
